Key:
MCF-7 = experiment: Growth inhibition of cell lines treated with 2X-121; type: cell-based; conditions: Homo sapiens, MCF7; cell line MCF-7, origin Breast; read-out: Measured growth inhibition IC50
[1] = cited from earlier work
Jeko-1 = experiment: Growth inhibition of cell lines treated with 2X-121; type: cell-based; conditions: Homo sapiens; cell line Jeko-1, origin MCL; read-out: Measured growth inhibition IC50
MDA-MB-231 = experiment: as above; type: cell-based; conditions: Homo sapiens; cell line MDA-MB-231, origin Breast; read-out: Measured growth inhibition IC50
HEC-50B = experiment: as above; type: cell-based; conditions: cell line HEC-50B, origin Endometrial; read-out: Measured growth inhibition IC50
NCEB-1 = experiment: as above; type: cell-based; conditions: NCEB1; cell line NCEB-1, origin MCL; read-out: Measured growth inhibition IC50
MV-4-11 = experiment: as above; type: cell-based; conditions: Homo sapiens, MV4-11; cell line MV-4-11, origin AML; read-out: Measured growth inhibition IC50
SR = experiment: as above; type: cell-based; conditions: Homo sapiens; cell line SR, origin B cell lymphoma; read-out: Measured growth inhibition IC50
NCI-H929 = experiment: as above; type: cell-based; conditions: Homo sapiens; cell line NCI-H929, origin Myeloma; read-out: Measured growth inhibition IC50
NCI-H209 = experiment: as above; type: cell-based; conditions: Homo sapiens; cell line NCI-H209, origin SCLC; read-out: Measured growth inhibition IC50
U937 = experiment: as above; type: cell-based; conditions: Homo sapiens, U-937; cell line U937, origin Histiocytic lymphoma-monocytic; read-out: Measured growth inhibition IC50
HCC1143 = experiment: as above; type: cell-based; conditions: Homo sapiens; cell line HCC1143, origin Breast; read-out: Measured growth inhibition IC50
HEC-6 = experiment: as above; type: cell-based; conditions: cell line HEC-6, origin Endometrial; read-out: Measured growth inhibition IC50
AN3 CA = experiment: as above; type: cell-based; conditions: Homo sapiens; cell line AN3 CA, origin Endometrial; read-out: Measured growth inhibition IC50
NCI-H69 = experiment: as above; type: cell-based; conditions: Homo sapiens; cell line NCI-H69, origin SCLC; read-out: Measured growth inhibition IC50
NCI-H211 = experiment: as above; type: cell-based; conditions: Homo sapiens; cell line NCI-H211, origin SCLC; read-out: Measured growth inhibition IC50
Hs578T = experiment: as above; type: cell-based; conditions: Homo sapiens, Hs-578T; cell line Hs578T, origin Breast; read-out: Measured growth inhibition IC50
HEC-151 = experiment: as above; type: cell-based; conditions: cell line HEC-151, origin Endometrial; read-out: Measured growth inhibition IC50
MDA-MB-157 = experiment: as above; type: cell-based; conditions: Homo sapiens; cell line MDA-MB-157, origin Breast; read-out: Measured growth inhibition IC50
SNG-II = experiment: as above; type: cell-based; conditions: cell line SNG-II, origin Endometrial; read-out: Measured growth inhibition IC50
HEC-88nu = experiment: as above; type: cell-based; conditions: cell line HEC-88nu, origin Endometrial; read-out: Measured growth inhibition IC50
HEC-1 = experiment: as above; type: cell-based; conditions: Homo sapiens; cell line HEC-1, origin Endometrial; read-out: Measured growth inhibition IC50
Namalwa = experiment: as above; type: cell-based; conditions: cell line Namalwa, origin Burkitts lymphoma; read-out: Measured growth inhibition IC50
Pfeiffer = experiment: as above; type: cell-based; conditions: Homo sapiens; cell line Pfeiffer, origin DLBCL (GC); read-out: Measured growth inhibition IC50
SNU-423 = experiment: as above; type: cell-based; conditions: Homo sapiens; cell line SNU-423, origin HCC; read-out: Measured growth inhibition IC50
HCC1806 = experiment: as above; type: cell-based; conditions: Homo sapiens; cell line HCC1806, origin Breast; read-out: Measured growth inhibition IC50
Toledo = experiment: as above; type: cell-based; conditions: Homo sapiens; cell line Toledo, origin DLBCL (GC); read-out: Measured growth inhibition IC50
IM-9 = experiment: as above; type: cell-based; conditions: Homo sapiens; cell line IM-9, origin B lymphoblast; read-out: Measured growth inhibition IC50
RL = experiment: as above; type: cell-based; conditions: Homo sapiens; cell line RL, origin NHL B cell lymphoma; read-out: Measured growth inhibition IC50
HCT-116 = experiment: as above; type: cell-based; conditions: Homo sapiens; cell line HCT-116, origin Colon; read-out: Measured growth inhibition IC50
SNG-M = experiment: as above; type: cell-based; conditions: cell line SNG-M, origin Endometrial; read-out: Measured growth inhibition IC50
RPMI-8226 = experiment: as above; type: cell-based; conditions: Homo sapiens; cell line RPMI-8226, origin Myeloma; read-out: Measured growth inhibition IC50

## O=c1[nH]nc2c3c(cccc13)N=C(CN1Cc3ccccc3C1)N2 [2X-121, 8-(isoindolin-2-ylmethyl)-2,9-dihydro-3H-pyridazino[3,4,5-de]quinazolin-3-one]
MCF-7
  IC50: 1.9 µM
[1]
  oral bioavailability: orally bioavailable
Jeko-1
  IC50: 1.9 µM
MDA-MB-231
  IC50: 25 µM
HEC-50B
  IC50: 3.45 µM
NCEB-1
  IC50: 5.3 µM
MV-4-11
  IC50: 0.95 µM
SR
  IC50: 0.26 µM
NCI-H929
  IC50: 5.2 µM
NCI-H209
  IC50: 0.62 µM
U937
  IC50: 2.7 µM
HCC1143
  IC50: 3.7 µM
HEC-6
  IC50: 1.88 µM
AN3 CA
  IC50: 1.49 µM
NCI-H69
  IC50: 1.33 µM
NCI-H211
  IC50: 0.48 µM
Hs578T
  IC50: 9.6 µM
HEC-151
  IC50: 1.44 µM
MDA-MB-157
  IC50: 6.8 µM
SNG-II
  IC50: 5.26 µM
HEC-88nu
  IC50: 1.14 µM
HEC-1
  IC50: 1.28 µM
Namalwa
  IC50: 2.5 µM
Pfeiffer
  IC50: 0.71 µM
SNU-423
  IC50: 19 µM
HCC1806
  IC50: 1.8 µM
Toledo
  IC50: 1.6 µM
IM-9
  IC50: 2.1 µM
RL
  IC50: 2.5 µM
HCT-116
  IC50: 1.7 µM
SNG-M
  IC50: 1.36 µM
RPMI-8226
  IC50: 9.3 µM

Source: patent US12668845B2, “Methods for predicting drug responsiveness in cancer patients” (Allarity Therapeutics Europe ApS, priority 2018, dated 2026)
